Assay results reported in paper PMC10960024, “Diindoles produced from commensal microbiota metabolites function as endogenous CAR/Nr1i3 ligands” (Nature Communications, 2024).

Legend:
[1] = biological target: T1, His-tagged CAR-LBD-SRC1 fusion protein (Homo sapiens, UniProt Q14994); experiment: Isothermal titration calorimetry (ITC); format: binding; conditions: 25 °C; ligand 50 μM; mean of two independent experiments
T1 construct: The human CAR LBD (Lys^108 – Ser^352) was amplified by PCR from cDNA; HIS6; made in house; host or cells: E. coli BL21(DE3)
T1 sequence (Q14994 108-352): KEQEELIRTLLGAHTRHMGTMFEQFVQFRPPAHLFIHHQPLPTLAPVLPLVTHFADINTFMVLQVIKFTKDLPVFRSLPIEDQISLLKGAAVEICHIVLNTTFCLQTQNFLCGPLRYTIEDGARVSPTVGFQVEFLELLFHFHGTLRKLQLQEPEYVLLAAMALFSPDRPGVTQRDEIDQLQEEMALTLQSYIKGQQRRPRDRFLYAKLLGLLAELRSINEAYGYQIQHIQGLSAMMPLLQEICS
Protocol: Purified hCAR-SRC1 protein (200–250 µM) was dissolved in 120 μL of PBS and supplemented with 0.5% DMSO. All experiments were performed in a MicroCal Auto-iTC200 instrument (Malvern Panalytical, Marlvern, United Kingdom) at 25 °C. Ligands were used at a concentration of 50 μM. Protein was titrated into cells in a series of 19 injections (injection 1 = 0.4 µL, injection 2–19 = 2 µL) 180 s apart. Control experiments performed by injection of the potein into […] yielded insignificant heats of dilution, and heat responses were subtracted. Integrated heat effects were analyzed using Microcal Origin 7 software (Malvern Instruments).

GAL4-hCAR LBD = biological target: T2, GAL4-hCAR LBD (Homo sapiens, UniProt Q14994); experiment: HEK293T GAL4-hCAR dual transfection reporter assay with PK11195 (antagonist displacement); format: cell-based; conditions: read-out: HEK293 GAL4-hCAR EC50
T2 construct: chimeric yeast GAL4 DBD fused to an hCAR LBD; expressed in transfected cells; host or cells: HEK293T (ATCC, CRL-3216)
T2 sequence (Q14994 109-352 limits assumed): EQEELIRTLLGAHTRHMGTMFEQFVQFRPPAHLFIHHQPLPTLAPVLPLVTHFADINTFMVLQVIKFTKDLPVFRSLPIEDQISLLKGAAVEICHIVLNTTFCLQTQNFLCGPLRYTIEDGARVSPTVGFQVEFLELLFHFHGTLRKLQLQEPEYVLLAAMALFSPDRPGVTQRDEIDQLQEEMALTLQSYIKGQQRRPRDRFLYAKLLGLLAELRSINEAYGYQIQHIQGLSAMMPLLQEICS
Source text: The GAL4-hCAR, UAS-Luc, pcDNA-GAL4, pGL4-Renilla-Luc and pGEM plasmids were generously provided by Dr. David Mangelsdorf. The GAL4-hCAR plasmid encodes a constitutively expressed chimeric yeast GAL4 DBD fused to an hCAR LBD. The UAS-Luc plasmid encodes a Firefly luciferase reporter under the control of a GAL4 response element. The pcDNA plasmid encodes a constitutively expressed GAL4 DBD and was used as a control vector to determine non-specific luminescence in all HEK293T cellular reporter assays. The pGL4-Renilla-Luc plasmid encodes a constitutively expressed Renilla luciferase reporter and was used as a transfection control in the HEK293T cellular reporter assays.
HEK293T cells (ATCC, CRL-3216) were seeded at a density of 40,000 cells per well in white flat-bottom 96-well microplates (Greiner CellStar, 655073) in Dulbecco’s Modified Eagle Medium (DMEM) (2.5 g/l glucose) supplemented with 10% stripped fetal bovine serum with 100 units/ml of penicillin and incubated for 24 h at 37 °C. Transfection was carried out using 0.3 µL/well of Lipofectamine 2000 (Thermo Fisher Scientific, 11668019). Cells were transfected with 10 ng/well of either pcDNA or GAL4-hCAR, 50 ng/well of UAS-Luc, 5 ng/well of pGL4-Renilla-Luc, and 85 ng/well of pGEM for a total of 150 ng/well of DNA. […] Cells were incubated for 16-hours to allow build-up of luciferase and then processed using the Dual-Glo Luciferase Assay System (Promega, E2940) as per the manufacturer’s instructions. Incubations were performed in four technical replicates.

hCAR1+A = biological target: T3, hCAR1+A (Homo sapiens, UniProt Q14994, INS274A); experiment: HepG2 CYP2B6-2.2 kb reporter with hCAR1+A; format: cell-based; conditions: 1, 5 and 10 µM, 24 h
T3 construct: expressed in transfected cells; host or cells: HepG2 (ATCC, HB-8065)
Source text: Activities of both firefly and renilla luciferases were detected using a Dual-Luciferase Kit (Promega).

[2] = Liver-to-body weight ratio after treatment; format: in vivo
Protocol: (§1) 12–15 week-old C57BL/6 J mice were obtained from Jackson Laboratories and were housed on a standard 12 h light/dark cycle. Nr1i3^−/− mice with C57BL/6 J background were obtained from David Moore’s lab (PMID: 11057673) at Baylor College of Medicine, and used at 13–26 weeks of age. Wild-type male, female and Nr1i3^−/− male mice were used in this study, due to known sex-specific CAR activities. Mice were housed in groups of 2–5 mice per cage on a standard 12 h light/dark cycle and fed with rodent chow diet (Inotiv, Teklad rodent diet 2918). Temperature was maintained at 21 °C with a range of 21–24 °C and humidity at 16–51%. National Institute of Health guidelines for the care and use of laboratory animals were followed with all experiments performed as directed by the Institutional Animal Care and Use Committee at the University of Illinois, Urbana-Champaign (UIUC, IACUC protocol: 22183). Mice were acclimatized to the UIUC mouse facility for 2 weeks prior to experiments. DIM and DIE were dissolved in 5% DMSO in corn oil and injected intraperitoneally at 25 mg/kg once daily for three days. After 4 h of the third injection, mice were sacrificed to collect serum, livers and intestines. TCPOBOP was dissolved in corn oil and injected intraperitoneally at 3 mg/kg once and the livers collected after 3 days for further studies. When used to block CAR activity, 100 mg/kg androstenol was injected intraperitoneally 15 min prior to the first DIM or DIE treatment. RNA from mice livers was isolated using TRIzol (Invitrogen) reagent using the manufacturer’s instructions. 3–5 µg of RNA was used to synthesize cDNA with random primers (NEBioLabs) and Maxima Reverse Transcriptase kits (Thermo Fisher Scientific). cDNA was further diluted, and 50 ng was used for SYBR green (Thermo Fisher Scientific) based qRT-PCR. Relative gene expression was calculated by the delta Ct method and normalized to 36b4 levels as loading controls. qPCR primers for gene expression analysis are listed in Supplementary Table 3.

Liver histology (H&E) = format: in vivo
Protocol: as §1, with “3. […]” for “3.”

[3] = Diindole levels in tissues of WT and Nr1i3-/- mice; format: in vivo
Protocol: as §1, with “TCPOBOP was dissolved in corn oil and injected intraperitoneally at 3 mg/kg once and the livers collected after 3 days for further studies. When used to block CAR activity, 100 mg/kg androstenol was injected intraperitoneally 15 min prior to the first DIM or DIE treatment. RNA from mice livers was isolated using TRIzol (Invitrogen) reagent using the manufacturer’s instructions. 3–5 µg of RNA was used to synthesize cDNA with random primers (NEBioLabs) and Maxima Reverse Transcriptase kits (Thermo Fisher Scientific). cDNA was further diluted, and 50 ng was used for SYBR green (Thermo Fisher Scientific) based qRT-PCR.” left out

T3 sequence (Q14994 with tags, fused parts or gaps isoform Q14994-2 INS270A): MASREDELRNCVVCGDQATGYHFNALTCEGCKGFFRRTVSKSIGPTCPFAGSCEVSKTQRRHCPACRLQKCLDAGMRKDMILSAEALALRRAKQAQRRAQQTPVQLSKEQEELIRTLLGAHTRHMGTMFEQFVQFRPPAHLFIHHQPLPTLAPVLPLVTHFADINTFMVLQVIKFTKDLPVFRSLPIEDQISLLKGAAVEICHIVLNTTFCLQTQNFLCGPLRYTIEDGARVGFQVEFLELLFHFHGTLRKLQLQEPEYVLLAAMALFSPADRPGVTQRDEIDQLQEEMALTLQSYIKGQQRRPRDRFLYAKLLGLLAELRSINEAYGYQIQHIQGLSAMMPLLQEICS
T3 sequence (P19793 whole entry partner): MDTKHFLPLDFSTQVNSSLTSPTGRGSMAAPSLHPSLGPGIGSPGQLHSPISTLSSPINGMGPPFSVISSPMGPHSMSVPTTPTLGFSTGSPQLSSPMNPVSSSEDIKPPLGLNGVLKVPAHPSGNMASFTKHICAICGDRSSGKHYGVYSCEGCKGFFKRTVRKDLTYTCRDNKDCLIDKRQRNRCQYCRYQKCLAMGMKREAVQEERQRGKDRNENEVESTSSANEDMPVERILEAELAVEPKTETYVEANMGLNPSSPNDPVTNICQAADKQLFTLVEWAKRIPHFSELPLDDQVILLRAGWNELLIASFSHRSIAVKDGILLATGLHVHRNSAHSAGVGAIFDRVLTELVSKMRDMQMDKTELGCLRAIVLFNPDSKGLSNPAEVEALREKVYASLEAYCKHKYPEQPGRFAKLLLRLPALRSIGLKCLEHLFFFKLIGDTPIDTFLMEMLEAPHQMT

SMILES	Kd [1]	EC50 (GAL4-hCAR LBD)	hCAR1+A activity (CYP2B6 reporter) (hCAR1+A)	liver weight / liver-to-body weight ratio ([2]; mouse, in vivo)	liver histology (H&E) findings (Liver histology (H&E); mouse, in vivo)	compound levels in tissues of Nr1i3-/- versus WT mice ([3]; mouse, in vivo)	liver weight / liver-to-body weight ratio ([2]; post-treatment, compared to control)	liver histology (H&E) findings (Liver histology (H&E); after treatment)	compound levels in tissues of Nr1i3-/- versus WT mice ([3]; duodenum, jejunum, ileum, liver, male mice treated with diindoles)
c1ccc2c(Cc3c[nH]c4ccccc34)c[nH]c2c1 [DIM, diindolylmethane]	3.9 µM	1.74 µM	significantly boost hCAR1+A activity	no significant changes	no increase in hepatocyte size, cytoplasmic swelling, obvious damage or inflammation	increased dramatically	–	–	–
CC(c1c[nH]c2ccccc12)c1c[nH]c2ccccc12 [DIE, 3,3’-diindolylethane]	0.25 µM	0.72 µM	significantly boost hCAR1+A activity	–	–	–	no significant changes	no increase in hepatocyte size, cytoplasmic swelling, obvious damage or inflammation	increased dramatically
